# From ChEMBL document CHEMBL1201862, “PubChem BioAssay data set” (2004)
#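 Values below derive from 48-hour exposures of cells grown in 96-well plates, with endpoints linearly interpolated between the two concentrations bracketing the appropriate inhibition level. GI50 = concentration required for 50% inhibition of growth.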 Calls of active or inactive are those of the source. No stated cut-off is given here; in the data, active = GI50 up to about 1.1 µM and inactive = higher.
# Key:
# Experiment in all cases: NCI-60 cell line screen, 48 h
# NCI-H23 = system: NCI-H23
# DMS-273 = system: DMS-273
# DLD-1 = system: DLD-1
# OVCAR-3 = system: OVCAR-3
# SF-295 = system: SF-295
# OVCAR-4 = system: OVCAR-4
# A498 = system: A498
# M14 = system: M14
# K562 = system: K562
# EKVX = system: EKVX
# SK-MEL-5 = system: SK-MEL-5
# HCC 2998 = system: HCC 2998
# SF-539 = system: SF-539
# UACC-62 = system: UACC-62
# RPMI-8226 = system: RPMI-8226
# HCT-116 = system: HCT-116
# OVCAR-5 = system: OVCAR-5
# NCI-H522 = system: NCI-H522
# SN12C = system: SN12C
# CCRF-CEM = system: CCRF-CEM
# SK-MEL-2 = system: SK-MEL-2
# HT-29 = system: HT-29
# CAKI-1 = system: CAKI-1
# KM12 = system: KM12
# UACC-257 = system: UACC-257
# HOP-62 = system: HOP-62
# HL-60 = system: HL-60
# TK-10 = system: TK-10
# SNB-75 = system: SNB-75
# COLO 205 = system: COLO 205
# LXFL 529 = system: LXFL 529
# OVCAR-8 = system: OVCAR-8
# SF-268 = system: SF-268
# NCI-H226 = system: NCI-H226
# IGROV-1 = system: IGROV-1
# U-251 = system: U-251
# 786-0 = system: 786-0
# HOP-18 = system: HOP-18
# M19-MEL = system: M19-MEL
# SW-620 = system: SW-620
# ACHN = system: ACHN
# RXF 393 = system: RXF 393
# MOLT-4 = system: MOLT-4
# SK-OV-3 = system: SK-OV-3
# HOP-92 = system: HOP-92
# SNB-19 = system: SNB-19
# KM-20L2 = system: KM-20L2
# DMS-114 = system: DMS-114
# LOX IMVI = system: LOX IMVI
# SK-MEL-28 = system: SK-MEL-28
# A549 = system: A549
# HCT-15 = system: HCT-15
# NCI-H460 = system: NCI-H460
# Malme-3M = system: Malme-3M
# UO-31 = system: UO-31
# SNB-78 = system: SNB-78
# SR = system: SR
compound,measurement,setting,value
C/C(CN1C(=O)c2ccccc2C1=O)=N\NS(=O)(=O)c1ccc(Br)cc1,GI50,NCI-H23,> 100 µM (inactive)
same,GI50,DMS-273,> 100 µM (inactive)
same,GI50,DLD-1,> 100 µM (inactive)
same,GI50,OVCAR-3,> 100 µM (inactive)
same,GI50,SF-295,> 100 µM (inactive)
same,GI50,OVCAR-4,> 100 µM (inactive)
same,GI50,A498,> 100 µM (inactive)
same,GI50,M14,> 100 µM (inactive)
same,GI50,K562,> 100 µM (inactive)
same,GI50,EKVX,> 100 µM (inactive)
same,GI50,SK-MEL-5,> 100 µM (inactive)
same,GI50,HCC 2998,> 100 µM (inactive)
same,GI50,SF-539,> 100 µM (inactive)
same,GI50,UACC-62,> 100 µM (inactive)
same,GI50,RPMI-8226,> 100 µM (inactive)
same,GI50,HCT-116,> 100 µM (inactive)
same,GI50,OVCAR-5,> 100 µM (inactive)
same,GI50,NCI-H522,> 100 µM (inactive)
same,GI50,SN12C,> 100 µM (inactive)
same,GI50,CCRF-CEM,> 100 µM (inactive)
same,GI50,SK-MEL-2,> 100 µM (inactive)
same,GI50,HT-29,> 100 µM (inactive)
same,GI50,CAKI-1,> 100 µM (inactive)
same,GI50,KM12,> 100 µM (inactive)
same,GI50,UACC-257,> 100 µM (inactive)
same,GI50,HOP-62,> 100 µM (inactive)
same,GI50,HL-60,> 100 µM (inactive)
same,GI50,TK-10,> 100 µM (inactive)
same,GI50,SNB-75,> 100 µM (inactive)
same,GI50,COLO 205,> 100 µM (inactive)
same,GI50,LXFL 529,> 100 µM (inactive)
same,GI50,OVCAR-8,> 100 µM (inactive)
same,GI50,SF-268,> 100 µM (inactive)
same,GI50,NCI-H226,> 100 µM (inactive)
same,GI50,IGROV-1,> 100 µM (inactive)
same,GI50,U-251,> 100 µM (inactive)
same,GI50,786-0,> 100 µM (inactive)
same,GI50,HOP-18,> 100 µM (inactive)
same,GI50,M19-MEL,> 100 µM (inactive)
same,GI50,SW-620,> 100 µM (inactive)
same,GI50,ACHN,> 100 µM (inactive)
same,GI50,RXF 393,> 100 µM (inactive)
same,GI50,MOLT-4,> 100 µM (inactive)
same,GI50,SK-OV-3,> 100 µM (inactive)
same,GI50,HOP-92,74.8 µM (inactive)
same,GI50,SNB-19,> 100 µM (inactive)
same,GI50,KM-20L2,> 100 µM (inactive)
same,GI50,DMS-114,10.9 µM (inactive)
same,GI50,LOX IMVI,> 100 µM (inactive)
same,GI50,SK-MEL-28,> 100 µM (inactive)
same,GI50,A549,> 100 µM (inactive)
same,GI50,HCT-15,> 100 µM
same,GI50,NCI-H460,> 100 µM (inactive)
same,GI50,Malme-3M,> 100 µM (inactive)
same,GI50,UO-31,> 100 µM (inactive)
same,GI50,SNB-78,> 100 µM (inactive)
COc1cccc(C2SCc3nc4ccccc4n32)c1 (stereo not drawn),GI50,NCI-H23,35 µM (inactive)
same,GI50,DMS-273,39.1 µM (inactive)
same,GI50,DLD-1,88.1 µM (inactive)
same,GI50,OVCAR-3,35.2 µM (inactive)
same,GI50,SF-295,35.7 µM (inactive)
same,GI50,OVCAR-4,> 100 µM (inactive)
same,GI50,A498,38 µM (inactive)
same,GI50,M14,77.1 µM (inactive)
same,GI50,K562,45.4 µM (inactive)
same,GI50,EKVX,46.3 µM (inactive)
same,GI50,SK-MEL-5,21.1 µM (inactive)
same,GI50,HCC 2998,45.6 µM (inactive)
same,GI50,SF-539,> 100 µM (inactive)
same,GI50,UACC-62,49.9 µM (inactive)
same,GI50,HCT-116,39.7 µM (inactive)
same,GI50,OVCAR-5,58.9 µM (inactive)
same,GI50,SN12C,99.1 µM (inactive)
same,GI50,CCRF-CEM,> 100 µM (inactive)
same,GI50,SK-MEL-2,56.2 µM (inactive)
same,GI50,HT-29,41.9 µM (inactive)
same,GI50,CAKI-1,37.9 µM (inactive)
same,GI50,KM12,56.4 µM (inactive)
same,GI50,UACC-257,44.3 µM (inactive)
same,GI50,HOP-62,> 100 µM (inactive)
same,GI50,HL-60,30.1 µM (inactive)
same,GI50,TK-10,14.7 µM (inactive)
same,GI50,SNB-75,53 µM (inactive)
same,GI50,COLO 205,> 100 µM (inactive)
same,GI50,OVCAR-8,57.9 µM (inactive)
same,GI50,SF-268,73.1 µM (inactive)
same,GI50,NCI-H226,51.4 µM (inactive)
same,GI50,IGROV-1,45.5 µM (inactive)
same,GI50,U-251,76.6 µM (inactive)
same,GI50,786-0,> 100 µM (inactive)
same,GI50,HOP-18,> 100 µM (inactive)
same,GI50,M19-MEL,46.6 µM (inactive)
same,GI50,SW-620,46.6 µM (inactive)
same,GI50,ACHN,39.1 µM (inactive)
same,GI50,RXF 393,53.6 µM (inactive)
same,GI50,MOLT-4,66.1 µM (inactive)
same,GI50,SK-OV-3,65.3 µM (inactive)
same,GI50,HOP-92,12.2 µM (inactive)
same,GI50,SNB-19,> 100 µM (inactive)
same,GI50,DMS-114,21.3 µM (inactive)
same,GI50,LOX IMVI,54.6 µM (inactive)
same,GI50,SK-MEL-28,81.3 µM (inactive)
same,GI50,A549,34.8 µM (inactive)
same,GI50,HCT-15,38.8 µM
same,GI50,NCI-H460,> 100 µM (inactive)
same,GI50,Malme-3M,54.6 µM (inactive)
same,GI50,UO-31,22.1 µM (inactive)
same,GI50,SNB-78,> 100 µM (inactive)
COc1cc2c3c(c1OC)Oc1ccc(cc1)CC1c4c(cc(OC)c(OC)c4Oc4ccc(cc4)CC3N(C)CC2)CCN1C (stereo not drawn),GI50,NCI-H23,57.9 µM (inactive)
same,GI50,DMS-273,15.3 µM (inactive)
same,GI50,DLD-1,29.2 µM (inactive)
same,GI50,OVCAR-3,18.6 µM (inactive)
same,GI50,SF-295,18.5 µM (inactive)
same,GI50,OVCAR-4,13.3 µM (inactive)
same,GI50,A498,0.0169 µM (active)
same,GI50,M14,18.8 µM (inactive)
same,GI50,K562,16.9 µM (inactive)
same,GI50,EKVX,67.6 µM (inactive)
same,GI50,SK-MEL-5,16.7 µM (inactive)
same,GI50,HCC 2998,14 µM (inactive)
same,GI50,SF-539,14.5 µM (inactive)
same,GI50,UACC-62,19 µM (inactive)
same,GI50,RPMI-8226,25.6 µM (inactive)
same,GI50,HCT-116,13.8 µM (inactive)
same,GI50,OVCAR-5,56.6 µM (inactive)
same,GI50,NCI-H522,12.7 µM (inactive)
same,GI50,SN12C,19 µM (inactive)
same,GI50,CCRF-CEM,18.5 µM (inactive)
same,GI50,SK-MEL-2,32.3 µM (inactive)
same,GI50,HT-29,15.1 µM (inactive)
same,GI50,CAKI-1,90.6 µM (inactive)
same,GI50,KM12,34.4 µM (inactive)
same,GI50,UACC-257,13.8 µM (inactive)
same,GI50,HOP-62,22.4 µM (inactive)
same,GI50,HL-60,15.3 µM (inactive)
same,GI50,TK-10,22.1 µM (inactive)
same,GI50,SNB-75,21.8 µM (inactive)
same,GI50,COLO 205,13.5 µM (inactive)
same,GI50,LXFL 529,20.6 µM (inactive)
same,GI50,OVCAR-8,20.2 µM (inactive)
same,GI50,SF-268,27 µM (inactive)
same,GI50,NCI-H226,15.6 µM (inactive)
same,GI50,IGROV-1,13.4 µM (inactive)
same,GI50,U-251,15.8 µM (inactive)
same,GI50,786-0,19.8 µM (inactive)
same,GI50,HOP-18,25.9 µM (inactive)
same,GI50,M19-MEL,17.3 µM (inactive)
same,GI50,SW-620,15.1 µM (inactive)
same,GI50,ACHN,26.2 µM (inactive)
same,GI50,RXF 393,12.9 µM (inactive)
same,GI50,MOLT-4,21.8 µM (inactive)
same,GI50,SK-OV-3,28.2 µM (inactive)
same,GI50,HOP-92,32.6 µM (inactive)
same,GI50,SNB-19,33 µM (inactive)
same,GI50,KM-20L2,19.8 µM (inactive)
same,GI50,DMS-114,19.8 µM (inactive)
same,GI50,LOX IMVI,17.7 µM (inactive)
same,GI50,SR,2.88 µM (inactive)
same,GI50,SK-MEL-28,18.8 µM (inactive)
same,GI50,A549,26.2 µM (inactive)
same,GI50,NCI-H460,18.7 µM (inactive)
same,GI50,Malme-3M,20.3 µM (inactive)
same,GI50,UO-31,15 µM (inactive)
